Reference: patent US6518316B1, “Cytokine production and tyrosine kinase inhibitors” (Xenova Limited, priority 1998, dated 2003)
Where two headings read alike, the source gives them in different places. Each block holds one molecule with its values, some of them ahead of it.

Legend:
recombinant abl kinase = recombinant abl kinase (Homo sapiens, UniProt P00519); assay: Inhibition of tyrosine kinase activity (abl kinase, LANCE time resolved fluorescence); format: biochemical; details: for IC50: abl kinase, peptide 6-20 p34cdc substrate
Sequence of recombinant abl kinase (P00519 whole entry): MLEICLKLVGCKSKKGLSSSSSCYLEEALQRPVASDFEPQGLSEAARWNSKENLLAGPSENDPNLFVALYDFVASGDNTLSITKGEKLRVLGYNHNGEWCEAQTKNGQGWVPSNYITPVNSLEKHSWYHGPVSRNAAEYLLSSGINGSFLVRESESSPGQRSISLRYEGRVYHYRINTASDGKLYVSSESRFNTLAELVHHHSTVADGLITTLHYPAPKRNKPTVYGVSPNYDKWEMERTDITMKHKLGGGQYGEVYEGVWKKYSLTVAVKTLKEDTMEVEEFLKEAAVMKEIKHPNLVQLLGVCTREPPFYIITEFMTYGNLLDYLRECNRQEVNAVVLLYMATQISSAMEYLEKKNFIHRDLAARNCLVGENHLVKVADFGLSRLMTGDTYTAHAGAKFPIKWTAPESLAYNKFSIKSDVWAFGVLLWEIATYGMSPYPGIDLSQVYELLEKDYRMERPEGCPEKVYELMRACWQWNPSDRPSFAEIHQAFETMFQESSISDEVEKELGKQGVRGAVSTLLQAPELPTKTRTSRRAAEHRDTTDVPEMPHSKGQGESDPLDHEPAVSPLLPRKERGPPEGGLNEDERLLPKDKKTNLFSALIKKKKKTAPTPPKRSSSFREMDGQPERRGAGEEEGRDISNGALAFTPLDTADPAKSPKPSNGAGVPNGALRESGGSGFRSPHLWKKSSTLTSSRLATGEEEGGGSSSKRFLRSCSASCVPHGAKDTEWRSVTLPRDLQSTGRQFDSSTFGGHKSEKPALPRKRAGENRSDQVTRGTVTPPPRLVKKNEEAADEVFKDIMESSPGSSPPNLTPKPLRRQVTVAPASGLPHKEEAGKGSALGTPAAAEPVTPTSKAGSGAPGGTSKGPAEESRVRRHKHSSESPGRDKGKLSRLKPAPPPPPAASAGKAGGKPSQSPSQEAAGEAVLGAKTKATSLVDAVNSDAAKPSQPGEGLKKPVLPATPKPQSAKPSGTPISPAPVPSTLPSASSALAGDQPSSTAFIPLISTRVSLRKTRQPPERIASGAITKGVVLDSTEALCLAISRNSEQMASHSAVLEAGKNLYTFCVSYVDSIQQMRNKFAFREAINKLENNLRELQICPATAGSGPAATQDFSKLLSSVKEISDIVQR
From the text: Phosphorylation of the peptide substrate was detected using a non-separation time resolved fluorescence assay (LANCE™) using anti-phosphotyrosine conjugated europium and streptavidin conjugated allophycocyanin (APC).

[1] = test system: IL-2 production by Jurkat E6-1 cells; assay: Cytokine (IL-2) release from PMA pre-treated, anti-CD28 stimulated Jurkat E6-1 cells (DELFIA); format: cell-based; details: for IC50: anti-CD28, 18 hours, read-out: IC50 for the inhibition of anti-CD28 induced IL-2 production by Jurkat E6-1 cells
Protocol: Jurkat E6-1 cell line was obtained from American Tissue Culture Collection (ATCC, Rockville, USA). The cells were pre-treated with 3 ng/ml phorbol myristate acetate (PMA) for three hours, washed and exposed to dose ranges of the compound to be tested followed by the addition of 5 μg/ml anti-CD28.
After 18 hours incubation at 37° C. and 5% CO2, cell culture supernatants were harvested for determination of IL-2 secretion by Dissociation Enhanced Lanthanide Fluorescence Immuno Assay (DELFIA). The effect of compound on cell cytotoxicity was determined using a redox potential sensitive dye, resazurin. Effects on protein synthesis were determined by investigation of [^3H] leucine uptake.

TNF-α = TNF-α release from PHA and LPS stimulated whole blood (DELFIA); format: cell-based; details: Homo sapiens
Protocol: (§1) Whole blood samples obtained from up to seven normal healthy volunteers were diluted in an equal volume of RPMI 1640 with 5% FBS and exposed to dose ranges of compound (Ia) followed by the addition of 10 μg/ml phytohaemagglutinin (PHA) and 100 ng/ml LPS. After incubation for 48 hours at 37° C. and 5% CO2 serum samples were harvested for determination of effect on IL-2 and TNF-α secretion using DELFIAs specific for each cytokine respectively.

T cells = assay: Toxicity to T cells; format: cell-based, human; details: 0.06 to 7 μM
IL-2 = IL-2 release from PHA and LPS stimulated whole blood (DELFIA); format: cell-based; details: Homo sapiens
Protocol: as §1

[2] = test system: IL2 production by T cells; assay: Cytokine (IL-2) release from purified T cells stimulated with anti-CD3 and anti-CD28 (DELFIA); format: cell-based; details: Homo sapiens, T-cell
From the text: The effect of compound (Ia) on IL-2 release was investigated using a previously described method (Van Cool S. W. et al., (1993) J. Immunol. 150: 3254-3263). T cells were purified by depletion of B cells and monocytes from Buffy coats obtained from normal healthy donors following separation of human peripheral blood mononuclear cells (PBMC) on Lymphoprep. Purified T cells were suspended in RPMI 1640 supplemented with 5% fetal bovine serum (FBS) and aliquoted into 96 well plates coated with anti-CD3. Cells were exposed to dose ranges of the compound to be tested followed by the addition of 5 μg/ml anti-CD28 and incubated for 18 hours at 37° C. and 5% CO2. IL-2 secretion in cell culture supernatants was determined using IL-2 DELFIA.

[3] = test system: TNF-α secretion by monocytes; assay: Cytokine (TNF-α) release from LPS stimulated monocytes (DELFIA); format: cell-based; details: Homo sapiens, Monocyte
Protocol: The effect of compound (Ia) on TNF-α release was investigated using a previously described method (Bakouche, O. et al., (1992), J. Immunol: 14, 84-91). Human monocytes were purified by elutriation from Buffy coats obtained from normal healthy donors after the separation of peripheral blood mononuclear cells (PBMC) on Lymphoprep. The monocytes were suspended in RPMI 1640 with 5% FBS and exposed to dose ranges of the compound to be tested followed by the addition of 1 ng/ml LPS. After incubation for 18 hours at 37° C. and 5% CO2 cell culture supernatants were harvested and stored at −70° C. Effects on TNF-α release were determined using a DELFIA.

[4] = Homo sapiens, Jurkat E6.1, PMA pre-treated

IC50 (recombinant abl kinase): 0.045 µM
IC50 ([1]; PMA pre-treated): 1.06 µM
SMILES: COC1c2c(O)cccc2C2=C3CCC(=O)c4c(O)ccc(c43)C2C1OC (stereo not drawn) [Compound 11, 4,9-Dihydroxy-7,8-dimethoxy-1,6b,7,8-tetrahydro-2H-benzo[j]fluroanthen-3-one]

IC50 (recombinant abl kinase): > 1 µM
IC50 [1, 4]: 2.96 µM
SMILES: COC1C(O)c2c(O)cccc2C2=C3CCC(O)c4c(O)ccc(c43)C21 (single isomer, unassigned) [Compound 2a]

IC50 (recombinant abl kinase): > 1 µM
IC50 [1, 4]: > 1.49 µM
SMILES: COC1C(O)c2c(O)cccc2C2=C3CCC(=NO)c4c(O)ccc(c43)C21 (stereo not drawn) [Compound 7, 4,8,9-Trihydroxy-7-methoxy-1,6b,7,8-tetrahydro-2H-benzo[j]fluoranthen-3-one oxime]

IC50 (recombinant abl kinase): > 1 µM
IC50 [1, 4]: 1.28 µM
SMILES: COC1C(O)c2c(O)cccc2C2=C3CCC(NC4CC4)c4c(O)ccc(c43)C21 (stereo not drawn) [Compound 5, 3-Cyclopropylamino-7-methoxy-1,2,3,6b, 7,8-hexahydrobenzo[d]fluoranthen-4,8,9-triol]

IC50 (recombinant abl kinase): > 5 µM
IC50 [1, 4]: > 5 µM
SMILES: COC1C(=O)c2c(O)cccc2C2=C3CCC(=O)c4c(O)ccc(c43)C21 (stereo not drawn) [Compound (II)]

IC50 (recombinant abl kinase): > 1 µM
SMILES: COC1C(O)c2c(O)cccc2C2=C3CCC(O)c4c(O)ccc(c43)C21 (single isomer, unassigned) [Compound 2b]

IC50 ([1]; PMA pre-treated): 4.3 µM
SMILES: COC1c2c(O)cccc2C2=C3CCC(=O)c4c(O)ccc(c43)C2C1OC (stereo not drawn) [Compound (III)]

IC50 (recombinant abl kinase): > 1 µM
SMILES: COC1C(O)c2c(O)cccc2C2=C3CCC(=O)c4c(O)c(Cl)cc(c43)C21 (stereo not drawn) [Compound 8, 5-Chloro-4,8,9-trihydroxy-7-methoxy-1,6b,7,8-tetrahydro-2H-benzo[j]fluoranthen-3-one]

IC50 [1, 4]: 2.5 µM
SMILES: CO[C@H]1[C@@H](O)c2c(O)cccc2C2=C3CCC(=O)c4c(O)ccc(c43)[C@H]21 [Compound (Ib)]

IC50 (TNF-α; Donor 1, read-out: IC50 Inhibition of TNF-α): 14 µM
IC50 (TNF-α; Donor 2, read-out: IC50 Inhibition of TNF-α): 14 µM
IC50 (TNF-α; Donor 3, read-out: IC50 Inhibition of TNF-α): 0.7 µM
IC50 (TNF-α; Donor 4, read-out: IC50 Inhibition of TNF-α): > 2.7 µM
IC50 (TNF-α; Donor 5, read-out: IC50 Inhibition of TNF-α): 5.3 µM
IC50 (TNF-α; Donor 6, read-out: IC50 Inhibition of TNF-α): 3 µM
concentrations at which phosphorylation of the peptide by abl kinase was inhibited (recombinant abl kinase): 0.001 to 5.2 µM
inhibition at 0.001 µM (recombinant abl kinase; 0.001 μM): 39%
inhibition at 0.01 µM (recombinant abl kinase; 0.01 μM): 56.2%
inhibition at 0.081 µM (recombinant abl kinase; 0.081 μM): 86.3%
inhibition at 0.65 µM (recombinant abl kinase; 0.65 μM): 98.6%
inhibition at 5.2 µM (recombinant abl kinase; 5.2 μM): 100%
IC50 (recombinant abl kinase): 0.006 µM
IC50 (IL-2; Donor 1, read-out: IC50 Inhibition of IL-2): 0.22 µM
IC50 (IL-2; Donor 2, read-out: IC50 Inhibition of IL-2): 1.2 µM
IC50 (IL-2; Donor 3, read-out: IC50 Inhibition of IL-2): 0.43 µM
IC50 (IL-2; Donor 4, read-out: IC50 Inhibition of IL-2): > 2.7 µM
IC50 (IL-2; Donor 5, read-out: IC50 Inhibition of IL-2): < 0.4 µM
IC50 (IL-2; Donor 6, read-out: IC50 Inhibition of IL-2): < 0.4 µM
IC50 [1, 4]: 0.34 µM
IC50 ([2]; 18 hours, read-out: IC50 for inhibition of anti-CD3 and anti-CD28 induced IL2 production by T cells): 0.12 µM
IC50 ([3]; 18 hours, read-out: IC50 for inhibition of LPS induced TNF-α secretion by monocytes): 0.42 µM
SMILES: CO[C@@H]1[C@@H]2C(=C3CCC(=O)c4c(O)ccc2c43)c2cccc(O)c2[C@@H]1O (relative stereo) [Compound (Ia)]
toxicity to T cells (T cells): not toxic
inhibition at 0.056 µM ([1]; Homo sapiens, Jurkat E6.1, 0.056 μM, read-out: % Inhibition of anti-CD28 induced IL-2 by PMA pre-treated Jurkat E6-1): 29%
inhibition at 0.11 µM ([1]; Homo sapiens, Jurkat E6.1, 0.11 μM, read-out: % Inhibition of anti-CD28 induced IL-2 by PMA pre-treated Jurkat E6-1): 30.5%
inhibition at 0.22 µM ([1]; Homo sapiens, Jurkat E6.1, 0.22 μM, read-out: % Inhibition of anti-CD28 induced IL-2 by PMA pre-treated Jurkat E6-1): 36%
inhibition at 0.44 µM ([1]; Homo sapiens, Jurkat E6.1, 0.44 μM, read-out: % Inhibition of anti-CD28 induced IL-2 by PMA pre-treated Jurkat E6-1): 57.8%
inhibition at 0.89 µM ([1]; Homo sapiens, Jurkat E6.1, 0.89 μM, read-out: % Inhibition of anti-CD28 induced IL-2 by PMA pre-treated Jurkat E6-1): 85.4%
inhibition at 1.8 µM ([1]; Homo sapiens, Jurkat E6.1, 1.8 μM, read-out: % Inhibition of anti-CD28 induced IL-2 by PMA pre-treated Jurkat E6-1): 92.2%
inhibition at 3.6 µM ([1]; Homo sapiens, Jurkat E6.1, 3.6 μM, read-out: % Inhibition of anti-CD28 induced IL-2 by PMA pre-treated Jurkat E6-1): 89.1%
inhibition at 7.1 µM ([1]; Homo sapiens, Jurkat E6.1, 7.1 μM, read-out: % Inhibition of anti-CD28 induced IL-2 by PMA pre-treated Jurkat E6-1): 91.5%
inhibition at 0.056 µM ([2]; 0.056 µM, read-out: % Inhibition of anti-CD-28 and Anti-CD3 induced IL-2 by T cells): 29.8%
inhibition at 0.11 µM ([2]; 0.11 µM, read-out: % Inhibition of anti-CD-28 and Anti-CD3 induced IL-2 by T cells): 47.3%
inhibition at 0.22 µM ([2]; 0.22 µM, read-out: % Inhibition of anti-CD-28 and Anti-CD3 induced IL-2 by T cells): 106%
inhibition at 0.44 µM ([2]; 0.44 µM, read-out: % Inhibition of anti-CD-28 and Anti-CD3 induced IL-2 by T cells): 88.3%
inhibition at 0.89 µM ([2]; 0.89 µM, read-out: % Inhibition of anti-CD-28 and Anti-CD3 induced IL-2 by T cells): 98.6%
inhibition at 1.8 µM ([2]; 1.8 µM, read-out: % Inhibition of anti-CD-28 and Anti-CD3 induced IL-2 by T cells): 100%
inhibition at 3.6 µM ([2]; 3.6 µM, read-out: % Inhibition of anti-CD-28 and Anti-CD3 induced IL-2 by T cells): 100%
inhibition at 7.1 µM ([2]; 7.1 µM, read-out: % Inhibition of anti-CD-28 and Anti-CD3 induced IL-2 by T cells): 100%
inhibition at 0.09 µM ([3]; 0.09 µM, read-out: % Inhibition of LPS induced TNF-a by monocytes): 19%
inhibition at 0.18 µM ([3]; 0.18 µM, read-out: % Inhibition of LPS induced TNF-a by monocytes): 32.1%
inhibition at 0.36 µM ([3]; 0.36 µM, read-out: % Inhibition of LPS induced TNF-a by monocytes): 48.1%
inhibition at 0.7 µM ([3]; 0.7 µM, read-out: % Inhibition of LPS induced TNF-a by monocytes): 57.6%
inhibition at 1.4 µM ([3]; 1.4 µM, read-out: % Inhibition of LPS induced TNF-a by monocytes): 73.2%
inhibition at 2.9 µM ([3]; 2.9 µM, read-out: % Inhibition of LPS induced TNF-a by monocytes): 80%
inhibition at 5.7 µM ([3]; 5.7 µM, read-out: % Inhibition of LPS induced TNF-a by monocytes): 89%

IC50 (recombinant abl kinase): 0.274 µM
IC50 [1, 4]: 2.35 µM
SMILES: CCOC1c2c(O)cccc2C2=C3CCC(=O)c4c(O)ccc(c43)C2C1OC (stereo not drawn) [Compound 10, 8-Ethoxy-4,9-dihydroxy-7-methoxy-1,6b,7,8-tetrahydro-2H-benzo[j]fluoranthen-3-one]

IC50 (recombinant abl kinase): 2.36 µM
IC50 [1, 4]: > 6.18 µM
SMILES: CO[C@H]1[C@H](OC)c2c(O)cccc2C2=C3CCC(=O)c4c(O)ccc(c43)[C@@H]21 (relative stereo) [Compound 11a]

IC50 (recombinant abl kinase): > 5 µM
IC50 [1, 4]: > 7.94 µM
SMILES: CCO[C@@H]1c2c(O)cccc2C2=C3CCC(=O)c4c(O)ccc(c43)[C@@H]2[C@H]1OC [Compound 10a]

IC50 (recombinant abl kinase): 0.132 µM
IC50 [1, 4]: 10.9 µM
SMILES: CCCOC1c2c(O)cccc2C2=C3CCC(=O)c4c(O)ccc(c43)C2C1OC (stereo not drawn) [Compound 9, 4,9-Dihydro-7-methoxy-8-propoxy-1,6b,7,8-tetrahydro-2H-benzo[j]fluoranthen-3-one]

SMILES: COC1C(O)c2c(O)cccc2C23OC24CCC(=O)c2c(O)ccc(c24)C13 (stereo not drawn) [Compound 3]
IC50 (recombinant abl kinase): 0.7 µM
IC50 [1, 4]: > 9.56 µM

IC50 (recombinant abl kinase): > 1 µM
IC50 [1, 4]: 6.64 µM
SMILES: COc1cccc2c1C(O)C(OC)C1C2=C2CCC(=O)c3c(O)ccc1c32 (stereo not drawn) [Compound 4]
